In US9428452B2, “Compounds” (Glaxo Group Limited, priority 2012, dated 2016):
Marks after values point to notes of the source that are not given here.

Key:
IL-17F mRNA expression = assay: Ex-vivo human skin model, IL-17F mRNA expression; assay type: cell-based; details: for Percentage of inhibition of IL-17F mRNA expression: Th17 cytokine cocktail 24 h, RT-PCR
Description: (§1) Fresh ex vivo human skin from healthy bariatric patients, that underwent abdominoplasty skin removal, was de-fatted and dermatomed at 750 μm. Dermatomed skin was incubated twice for 5-10 minutes at room temperature in PBS containing a antibiotic/antimycotic solution: Fungizone (Invitrogen #15290018), PSG (Fisher #BW17718R) and Gentamicin (Invitrogen #15750060). Skin was treated aseptically from this point on. Individual skin samples were obtained by 10 mm punch biopsy and placed in a 0.4 μm PCF membrane transwell (Millicell #PIHP01250) containing 30 μl of a 64% bovine collagen solution. After a 30 minute incubation at 37° C., which allows the collagen solution time to set, skin samples on transwells were transferred to 6-well plates (1 sample per well) and the lower chamber filled with 1 ml complete media (Cornification Media)+hydrocortisone (final concentration of 0.4 μg/ml) with or without test compounds at 10 μM (day −3) and allowed to rest overnight (16-18 h) at 37° C. Next, media was aspirated from the lower chamber, replaced with 1 ml complete media without hydrocortisone and incubated at 37° C. for 1 h. This constituted a ‘wash’ step. Following the hydrocortisone washout, media was again aspirated from the lower chamber and replaced with 1.0 ml complete media without hydrocortisone with or without GSK compounds at 10 μM (day −2). Cultures were incubated at 37° C. in a humidified chamber and media was refreshed one more day (day-1). The following day (day-0), cultures were stimulated for 24 h with a freshly made Th17 cytokine cocktail (CD3, 1 μg/ml, CD28, 2 μg/ml, IL-1b, 10 ng/ml, IL-6, 5 ng/ml, TGFb, 1 ng/ml, IL-21, 10 ng/ml, anti-IL-4, 1 μg/ml and anti-INFg, 1 μg/ml) with or without test compounds at 10 μM. Upon harvest (day +1), skin samples were minced with a razor blade and transferred to 1.5 ml RNAse-free tubes with 1 ml RNAlater solution until later analysis by RT-PCR (stored at −80 C).
(§2) Total RNA was isolated from about 30-40 mg of tissue using Qiagen's (Cat #74106) Mini RNA Isolation kit. Briefly, tissue was homogenized in the Precellys-24 machine using 300 μL of RLT buffer supplemented with 1% 2-Beta-Mercapto-Ethanol at 6300 rpm for 30 seconds for 6 cycles with a 2-minute ice break. 600 μL of water containing Proteinase K was added to the homogenate and digested at 55 C for 15 minutes. Digested tissue was spun down for 3 minutes at 10,000×g and the supernantant was used for RNA isolation using Qiagen's RNeasy mini columns according to manufacturer's protocol. 100 ng of RNA was used as template in a 20 μL PCR volume using Applied Biosciences RNA-to-CT 1 Step kit (AB Catalog #4392938) as well as the specific TaqMan probe for each gene to be quantified. Life Technologies FAM labeled Probes Catalog Numbers are as follows: ACTb=Hs01060665_g1, IL-17A=Hs00174383_m1, IL-17F=Hs00369400_m1, IL-22=Hs01574154_m1. All probes used (except for ACTb) expand an Exon. Applied Biosciences' Master Mix has a ROX dye internal control. OneStepPlus PCR machine was used for both the RT step and the 40 amplification cycles. RNA levels of gene of interest's relative expression were calculated using the Delta Delta CT formula.
(§3) First delta: Normalized to ACTb gene expression
(§4) Second delta: Normalized to sample 13 (Day 0+DMSO) for the gene of interest.

IL-22 mRNA expression = assay: Ex-vivo human skin model, IL-22 mRNA expression; assay type: cell-based; details: for Percentage of inhibition of IL-22 mRNA expression: Th17 cytokine cocktail 24 h, RT-PCR
Description: as §1, §2, §3, §4

[1] = target: T1, Human RORγ Ligand Binding Domain (RORγ-LBD) (Homo sapiens, UniProt P51449); assay: Dual Fluorescence Energy Transfer (FRET) assay: co-activator SRC1(2) peptide interaction with RORγ-LBD; assay type: biochemical; details: RORγ-LBD / SRC1(2) peptide, read-out: mean pIC50 (converted)
T1 construct: His6 with thrombin site) (N); made in house; host or cells: E. coli BL21(DE3), modified pET21a vector
T1 sequence (P51449 263-518): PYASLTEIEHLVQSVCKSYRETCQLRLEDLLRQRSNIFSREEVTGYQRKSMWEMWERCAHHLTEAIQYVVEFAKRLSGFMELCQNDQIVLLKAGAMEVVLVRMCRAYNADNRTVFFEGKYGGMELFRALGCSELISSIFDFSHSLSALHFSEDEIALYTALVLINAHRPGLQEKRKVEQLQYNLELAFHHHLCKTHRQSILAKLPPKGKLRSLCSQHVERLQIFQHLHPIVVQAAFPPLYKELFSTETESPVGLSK
Description: Dual Fluorescence Energy Transfer (FRET) Assay
This assay is based on the knowledge that nuclear receptors interact with cofactors (transcription factors) in a ligand dependent manner. RORγ is a typical nuclear receptor in that it has an AF2 domain in the ligand binding domain (LBD) which interacts with co-activators.
This assay measures ligand-mediated interaction of the co-activator peptide with the purified bacterial-expressed RORγ ligand binding domain (RORγ-LBD) to indirectly assess ligand binding. RORγ has a basal level of interaction with the co-activator SRC1(2) in the absence of ligand, thus, it is possible to find ligands that inhibit or enhance the RORγ/SRC1(2) interaction.
Human RORγ Ligand Binding Domain (RORγ-LBD) was expressed in E. coli strain BL21(DE3) as an amino-terminal polyhistidine tagged fusion protein. DNA encoding this recombinant protein was sub-cloned into a modified pET21a expression vector (Novagen).
Approximately 50 g E. coli cell pellet was resuspended in 300 mL of lysis buffer (30 mM imidazole pH 7.0 and 150 mM NaCl). Cells were lysed by sonication and cell debris was removed by centrifugation for 30 minutes at 20,000 g at 4° C. […] The clarified lysate was loaded onto a column (XK-26) packed with ProBond Nickel Chelating resin (InVitrogen), pre-equilibrated with 30 mM imidazole pH 7.0 and 150 mM NaCl. After washing to baseline absorbance with the equilibration buffer, the column was developed with a gradient from 30 to 500 mM imidazole pH 7.0. Column fractions containing the RORγ-LBD protein were pooled and concentrated to a volume of 5 mLs. The concentrated protein was loaded onto a Superdex 200 column pre-equilibrated with 20 mM Tris-Cl pH 7.2 and 200 mM NaCl. The fractions containing the desired RORγ-LBD protein were pooled together.
Purified RORγ-LBD was buffer exchanged by exhaustive dialysis [3 changes of at least 20 volumes (>8000×)] against PBS [100 mM NaPhosphate, pH 8 and 150 mM NaCl]. […] The modified RORγ-LBD was dialyzed against 2 buffer changes—TBS pH 8.0 containing 5 mM DTT, 2 mM EDTA and 2% sucrose—each at least 20 times of the volume. The modified protein was distributed into aliquots, frozen on dry ice and stored at −80° C. The biotinylated RORγ-LBD was subjected to mass spectrometric analysis to reveal the extent of modification by the biotinylation reagent.
Biotinylated SRC1(2) solution was prepared by adding an appropriate amount of biotinylated SRC1(2) from the 100 uM stock solution to a buffer containing 10 mM of freshly added DTT from solid to give a final concentration of 40 nM. An appropriate amount of Europium labeled Streptavidin was then added to the biotinylated SRC1(2) solution in a tube to give a final concentration of 10 nM. The tube was inverted gently and incubated for 15 minutes at room temperature. Twenty-fold excess biotin from the 10 mM stock solution was added and the tube was inverted gently and incubated for 10 minutes at room temperature.
Biotinylated RORγ-LBD solution was prepared by adding an appropriate amount of biotinylated RORγ-LBD from the stock solution to a buffer containing 10 mM of freshly added DTT from solid to give a final concentration of 40 nM. An appropriate amount of APC labeled Streptavidin was then added to the biotinylated RORγ-LBD solution in a tube to give a final concentration of 20 nM. The tube was inverted gently and incubated for 15 minutes at room temperature. Twenty-fold excess biotin from the 10 mM stock solution was then added and the tube was inverted gently and incubated for 10 minutes at room temperature.
The reaction mixtures were incubated for 5 minutes. […] The plates were incubated for 1 hour and then read on ViewLux in Lance mode for EU/APC.

IL-17A mRNA expression = assay: Ex-vivo human skin model, IL-17A mRNA expression; assay type: cell-based; details: for Percentage of inhibition of IL-17A mRNA expression: Th17 cytokine cocktail 24 h, RT-PCR
Description: as §1, §2, §3, §4

[2] = four different donors, compound 10 μM

- IC50 [1]: 31.6 nM
SMILES: CCc1ccc(N(CC(C)C)S(=O)(=O)c2ccc([C@H](O)CN3CCOCC3)c(CO)c2)cc1 [Example E125, N-(4-ethylphenyl)-4-(1-hydroxy-2-morpholinoethyl)-3-(hydroxymethyl)-N-isobutylbenzenesulfonamide]
- Percentage of inhibition of IL-17F mRNA expression (IL-17F mRNA expression; Skin Donor 1, compound 10 μM): 39%
- Percentage of inhibition of IL-17F mRNA expression (IL-17F mRNA expression; Skin Donor 2, compound 10 μM): 89% *
- Percentage of inhibition of IL-17F mRNA expression (IL-17F mRNA expression; Skin Donor 3, compound 10 μM): 45%
- Percentage of inhibition of IL-17F mRNA expression (IL-17F mRNA expression; Skin Donor 4, compound 10 μM): 80% *
- gene transcription of il17f (result in words) (IL-17F mRNA expression; [2]): inhibited
- Percentage of inhibition of IL-22 mRNA expression (IL-22 mRNA expression; Skin Donor 1, compound 10 μM): 52% *
- Percentage of inhibition of IL-22 mRNA expression (IL-22 mRNA expression; Skin Donor 2, compound 10 μM): 52%
- Percentage of inhibition of IL-22 mRNA expression (IL-22 mRNA expression; Skin Donor 3, compound 10 μM): 20%
- Percentage of inhibition of IL-22 mRNA expression (IL-22 mRNA expression; Skin Donor 4, compound 10 μM): 70% *
- gene transcription of il22 (result in words) (IL-22 mRNA expression; [2]): inhibited
- Percentage of inhibition of IL-17A mRNA expression (IL-17A mRNA expression; Skin Donor 1, compound 10 μM): 65% *
- Percentage of inhibition of IL-17A mRNA expression (IL-17A mRNA expression; Skin Donor 2, compound 10 μM): 92% *
- Percentage of inhibition of IL-17A mRNA expression (IL-17A mRNA expression; Skin Donor 3, compound 10 μM): 65% *
- Percentage of inhibition of IL-17A mRNA expression (IL-17A mRNA expression; Skin Donor 4, compound 10 μM): 93% *
- gene transcription of il17a (result in words) (IL-17A mRNA expression; [2]): inhibited
